Laboratory results reported in patent publication US8524493B2, “Released cytokeratins as markers for epithelial cells” (Centre Hospitalier Universitaire de Montpellier, priority 2006, dated 2013).

Tested on: CK19 protein release by viable epithelial cells (cell lines)
Experiment: CK19-EPISPOT assay with cycloheximide in cell-cultures
Type: cell-based, human
Settings: cell lines incubated with 50 μg/mL cycloheximide during the incubation step of the EPISPOT assay
Procedure: EPISPOT assays. Immobilon-P membrane 96-well plates (MAIPN450, Millipore Corporation, Bedford, Mass.) were coated overnight at 4° C. with the anti-CK19 mAb Ks19.1 (6 μg/mL) (Progen Biotechnik GMBH, Heidelberg, […].). Unbound mAb were removed by washing three times with PBS. The plates were then blocked with PBS supplemented with 5% FCS (Sigma, Chemical Co., Saint Louis, Mo.) for 1 h at room temperature and washed three times with PBS. To block protein synthesis, cell lines were incubated with 50 μg/mL of cycloheximide during the EPISPOT assay. Subsequently, viable cells were counted in a Kovac slide with trypan blue dye exclusion staining and finally plated in three replicate wells at different concentrations (1×10^5, 1×10^4, 1×10^3, 1×10^2, 10 and 1 cells). In addition, 5×10^4 to 1×10^5 of enriched CD45^− cells (i) from blood and bone marrow of colon and breast cancer patients, respectively, (ii) from the milk of healthy lactating women (normal primary mammary cells) or (iii) from normal and tumor colon tissues were seeded in different wells of the plates. […] Immunospots were counted by video camera imaging and computer assisted analysis (KS ELISPOT, Carl Zeiss Vision, Halbermoos, Germany). […]

Structure (SMILES): C[C@@H]1C[C@@H]([C@H](O)CC2CC(=O)NC(=O)C2)C(=O)[C@@H](C)C1 [cycloheximide]
- size and number of CK19 immunospots (CK19-releasing cells): decrease in the size and the number of spots
